# Laboratory results taken from US10077243B2, “Compounds for treating disorders mediated by metabotropic glutamate receptor 5, and methods of use thereof” (Sunovion Pharmaceuticals Inc., priority 2009, dated 2018).
# Read-outs that look alike come from different tables or passages of the source.
# Biological target: T1, human mGluR5 (Homo sapiens, UniProt P41594)
# T1 construct: expressed in transfected cells; host or cells: HEK293 cells stably expressing rat GLAST (EAAT1), stably transfected with pcDNAzeo3.1 carrying synthetic human mGluR5 DNA; zeocin-selected single clones
# Test: In vitro cell-based FLIPR calcium assay for positive modulation of the activation of mGluR5 by glutamate (PAM EC50)
# Details: FLIPR calcium signal, glutamate added at its EC20
# Summary of the method: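 HEK293/GLAST cells stably expressing mGluR5 were loaded with calcium-sensitive dye (25 °C, 45–60 min) in HBSS/20 mM HEPES. Test compounds were assayed in buffer containing glutamate at that day's EC20, with FLIPR fluorescence recorded. Controls contained 0.3% DMSO without compound.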
# [1] = HEK293/GLAST cells expressing recombinant human mGluR5, read-out: mGluR5 PAM EC50
# T1 sequence (P41594 21-1212): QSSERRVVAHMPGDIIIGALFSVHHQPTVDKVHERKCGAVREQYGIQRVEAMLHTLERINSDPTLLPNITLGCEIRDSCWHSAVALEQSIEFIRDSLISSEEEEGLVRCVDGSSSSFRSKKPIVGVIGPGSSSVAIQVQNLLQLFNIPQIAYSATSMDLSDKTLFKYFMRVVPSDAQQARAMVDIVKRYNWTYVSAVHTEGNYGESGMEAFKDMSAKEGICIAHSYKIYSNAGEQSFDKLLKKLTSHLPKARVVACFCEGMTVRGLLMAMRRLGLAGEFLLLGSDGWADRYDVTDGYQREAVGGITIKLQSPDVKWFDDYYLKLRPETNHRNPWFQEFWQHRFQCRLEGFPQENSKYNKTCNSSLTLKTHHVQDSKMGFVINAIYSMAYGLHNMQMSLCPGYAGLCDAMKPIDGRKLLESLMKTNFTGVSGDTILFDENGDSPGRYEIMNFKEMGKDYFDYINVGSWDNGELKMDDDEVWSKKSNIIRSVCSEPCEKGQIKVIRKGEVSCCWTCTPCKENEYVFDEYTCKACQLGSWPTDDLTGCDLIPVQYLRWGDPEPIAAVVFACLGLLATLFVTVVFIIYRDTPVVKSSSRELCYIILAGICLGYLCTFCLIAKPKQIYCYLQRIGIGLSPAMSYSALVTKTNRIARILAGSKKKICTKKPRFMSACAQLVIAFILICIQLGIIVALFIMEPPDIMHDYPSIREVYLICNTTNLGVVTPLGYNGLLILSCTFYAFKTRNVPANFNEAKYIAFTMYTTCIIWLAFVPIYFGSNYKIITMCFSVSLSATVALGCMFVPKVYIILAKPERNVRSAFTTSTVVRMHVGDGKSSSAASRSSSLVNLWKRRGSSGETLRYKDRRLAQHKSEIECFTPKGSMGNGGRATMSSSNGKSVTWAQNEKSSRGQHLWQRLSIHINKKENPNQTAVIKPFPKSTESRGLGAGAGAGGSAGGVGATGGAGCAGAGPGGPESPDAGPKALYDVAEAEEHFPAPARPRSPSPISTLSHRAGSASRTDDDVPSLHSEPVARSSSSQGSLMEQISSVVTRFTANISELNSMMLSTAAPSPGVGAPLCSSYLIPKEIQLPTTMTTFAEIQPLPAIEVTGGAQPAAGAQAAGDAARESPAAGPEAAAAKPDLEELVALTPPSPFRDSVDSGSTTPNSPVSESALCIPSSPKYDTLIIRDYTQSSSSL
EC50 [1],SMILES,"EC50 (mGluR5 PAM EC50, HEK293/GLAST cells expressing recombinant human mGluR5)"
30 to 100 nM,"O=c1c2c(nc3cc(C#Cc4ccccn4)ccn13)CCCC2 [Example 15.1, 7-(pyridin-2-ylethynyl)-3,4-dihydro-1H-pyrido[2,1-b]quinazolin-11(2H)-one]",–
300 to 1000 nM,"N#CCN1CCc2nc3cc(C#Cc4ccccn4)ccn3c(=O)c2C1 [Example 15.6, 2-(11-oxo-7-(pyridin-2-ylethynyl)-3,4-dihydro-1H-dipyrido[1,2-a:4′,3′-d]pyrimidin-2(11H)-yl)acetonitrile]",–
300 to 1000 nM,"O=c1c2c(nc3cc(C#Cc4ccccn4)ccn13)C[C@@H]1CCCN1C2 [Example 15.7, (S)-10-(pyridin-2-ylethynyl)-2,3,13,13a-tetrahydro-1H-pyrido[1′,2′:1,2]pyrimido[5,4-f]indolizin-6(5H)-one]",–
< 10 nM,"O=c1c2c(nc3cc(C#Cc4ccccc4)ccn13)CCCCC2 [Example 16.2, 3-(phenylethynyl)-7,8,9,10-tetrahydrocyclohepta[d]pyrido[1,2-a]pyrimidin-11(6H)-one]",–
< 10 nM,"O=c1c2c(nc3cc(C#Cc4ccccn4)ccn13)CCCCC2 [Example 16.3, 3-(pyridin-2-ylethynyl)-7,8,9,10-tetrahydrocyclohepta[d]pyrido[1,2-a]pyrimidin-11(6H)-one]",–
< 10 nM,"O=c1c2c(nc3cc(C#Cc4cccnc4)ccn13)CCCCC2 [Example 16.4, 3-(pyridin-3-ylethynyl)-7,8,9,10-tetrahydrocyclohepta[d]pyrido[1,2-a]pyrimidin-11(6H)-one]",–
< 10 nM,"O=c1c2c(nc3cc(C#Cc4ccncc4)ccn13)CCCCC2 [Example 16.5, 3-(pyridin-4-ylethynyl)-7,8,9,10-tetrahydrocyclohepta[d]pyrido[1,2-a]pyrimidin-11(6H)-one]",–

# The next lines start with the compound.
SMILES,EC50 [1],"EC50 (mGluR5 PAM EC50, HEK293/GLAST cells expressing recombinant human mGluR5)"
"CN1CCCn2c(nc3cc(C#Cc4cccc(F)c4)ccc3c2=O)CC1 [Example 10.3, 11-((3-fluorophenyl)ethynyl)-3-methyl-3,4,5,6-tetrahydro-1H-[1,5]diazocino[2,1-b]quinazolin-8(2H)-one]",10 to 30 nM,–
"CN1CCCc2nc3cc(C#Cc4cccc(F)c4)ccc3c(=O)n2CC1 [Example 10.4, 9-((3-fluorophenyl)ethynyl)-3-methyl-3,4,5,6-tetrahydro-1H-[1,4]diazocino[8,1-b]quinazolin-12(2H)-one]",30 to 100 nM,–
"O=C1CCc2nc3cc(C#Cc4cccc(F)c4)ccc3c(=O)n2CCN1 [Example 10.5, 9-((3-fluorophenyl)ethynyl)-2,3,5,6-tetrahydro-1H-[1,4]diazocino[8,1-b]quinazoline-4,12-dione]",30 to 100 nM,–
"O=C1CCn2c(nc3cc(C#Cc4cccc(F)c4)ccc3c2=O)CCN1 [Example 10.6, 11-((3-fluorophenyl)ethynyl)-2,3,5,6-tetrahydro-1H-[1,5]diazocino[2,1-b]quinazoline-4,8-dione]",30 to 100 nM,–
"COCCn1cnc2cc(C#Cc3cccc(F)c3)cnc2c1=O [Example 11.1, 7-((3-fluorophenyl)ethynyl)-3-(2-methoxyethyl)pyrido[3,2-d]pyrimidin-4(3H)-one]",30 to 100 nM,–
"O=c1c2ncc(C#Cc3ccccn3)cc2nc2n1C(CO)CC2 (stereo not drawn) [Example 11.3, 8-(hydroxymethyl)-3-(pyridin-2-ylethynyl)-7,8-dihydropyrido[3,2-d]pyrrolo[1,2-a]pyrimidin-10(6H)-one]",300 to 1000 nM,–
"CC1(C)CCc2nc3cc(C#Cc4ccccn4)cnc3c(=O)n2C1 [Example 11.5, 8,8-dimethyl-3-(pyridin-2-ylethynyl)-8,9-dihydro-6H-dipyrido[1,2-a:3′,2′-d]pyrimidin-11(7H)-one]",100 to 300 nM,–
"O=c1c2ncc(C#Cc3ccccn3)cc2nc2n1CC1CCCN1C2 (stereo not drawn) [Example 11.6, 3-(pyridin-2-ylethynyl)-9,10,10a,11-tetrahydro-6H-pyrido[3,2-d]pyrrolo[1′,2′:4,5]pyrazino[1,2-a]pyrimidin-13(8H)-one]",300 to 1000 nM,–
"O=c1c2ncc(C#Cc3cccc(F)c3)cc2nc2n1CCCCC2 [Example 11.7, 3-((3-fluorophenyl)ethynyl)-7,8,9,10-tetrahydropyrido[3′,2′:4,5]pyrimido[1,2-a]azepin-12(6H)-one]",< 10 nM,–
"O=c1c2ncc(C#Cc3ccccn3)cc2nc2n1CCCCC2 [Example 11.8, 3-(pyridin-2-ylethynyl)-7,8,9,10-tetrahydropyrido[3′,2′:4,5]pyrimido[1,2-a]azepin-12(6H)-one]",100 to 300 nM,–
"CC1CCc2nc3cc(C#Cc4ccccn4)cnc3c(=O)n2CC1 (stereo not drawn) [Example 11.9, 8-methyl-3-(pyridin-2-ylethynyl)-7,8,9,10-tetrahydropyrido[3′,2′:4,5]pyrimido[1,2-a]azepin-12(6H)-one]",10 to 30 nM,–
"CC1(C)Cc2nc3cc(C#Cc4ccccn4)cnc3c(=O)n2C1 [Example 11.10, 7,7-dimethyl-3-(pyridin-2-ylethynyl)-7,8-dihydropyrido[3,2-d]pyrrolo[1,2-a]pyrimidin-10(6H)-one]",30 to 100 nM,–
"CC1Cc2nc3cc(C#Cc4ccccn4)cnc3c(=O)n2C1 (stereo not drawn) [Example 11.13, 7-methyl-3-(pyridin-2-ylethynyl)-7,8-dihydropyrido[3,2-d]pyrrolo[1,2-a]pyrimidin-10(6H)-one]",300 to 1000 nM,–
"CC1(C)CCn2c(nc3nc(C#Cc4ccccn4)ccc3c2=O)C1 [Example 12.2, 9,9-dimethyl-2-(pyridin-2-ylethynyl)-7,8,9,10-tetrahydro-5H-dipyrido[1,2-a:2′,3′-d]pyrimidin-5-one]",30 to 100 nM,–
"CC1(C)CCc2nc3nc(C#Cc4ccccn4)ccc3c(=O)n2C1 [Example 12.3, 8,8-dimethyl-2-(pyridin-2-ylethynyl)-7,8,9,10-tetrahydro-5H-dipyrido[1,2-a:2′,3′-d]pyrimidin-5-one]",30 to 100 nM,–
"O=c1c2ccc(C#Cc3ccccn3)nc2nc2n1CCCCC2 [Example 12.5, 2-(pyridin-2-ylethynyl)-8,9,10,11-tetrahydropyrido[2′,3′:4,5]pyrimido[1,2-a]azepin-5(7H)-one]",300 to 1000 nM,–

SMILES,EC50 [1],"EC50 (mGluR5 PAM EC50, HEK293/GLAST cells expressing recombinant human mGluR5)"
"CC(O)c1cnc2cc(C#Cc3cccc(F)c3)ccn2c1=O (stereo not drawn) [Example 13.1, 8-((3-fluorophenyl)ethynyl)-3-(1-hydroxyethyl)-4H-pyrido[1,2-a]pyrimidin-4-one]",100 to 300 nM,–
"CCOC(C)c1cnc2cc(C#Cc3cccc(F)c3)ccn2c1=O (stereo not drawn) [Example 13.2, 3-(1-ethoxyethyl)-8-((3-fluorophenyl)ethynyl)-4H-pyrido[1,2-a]pyrimidin-4-one]",< 10 nM,–
"CCNC(=O)c1cnc2cc(C#Cc3cccc(F)c3)ccn2c1=O [Example 13.5, N-ethyl-8-((3-fluorophenyl)ethynyl)-4-oxo-4H-pyrido[1,2-a]pyrimidine-3-carboxamide]",10 to 30 nM,–
"O=c1c(CO)cnc2cc(C#Cc3cccc(F)c3)ccn12 [Example 13.6, 8-((3-fluorophenyl)ethynyl)-3-(hydroxymethyl)-4H-pyrido[1,2-a]pyrimidin-4-one]",300 to 1000 nM,–
"COCc1cnc2cc(C#Cc3cccc(F)c3)ccn2c1=O [Example 13.7, 8-((3-fluorophenyl)ethynyl)-3-(methoxymethyl)-4H-pyrido[1,2-a]pyrimidin-4-one]",30 to 100 nM,–
"CCOCc1cnc2cc(C#Cc3cccc(F)c3)ccn2c1=O [Example 13.8, 3-(ethoxymethyl)-8-((3-fluorophenyl)ethynyl)-4H-pyrido[1,2-a]pyrimidin-4-one]",30 to 100 nM,–
"COCCc1cnc2cc(C#Cc3cccc(F)c3)ccn2c1=O [Example 13.10, 8-((3-fluorophenyl)ethynyl)-3-(2-methoxyethyl)-4H-pyrido[1,2-a]pyrimidin-4-one]",10 to 30 nM,–
"COCCc1cnc2cc(C#Cc3ccc(F)cc3)ccn2c1=O [Example 13.11, 8-((4-fluorophenyl)ethynyl)-3-(2-methoxyethyl)-4H-pyrido[1,2-a]pyrimidin-4-one]",10 to 30 nM,–
"CCOCCc1cnc2cc(C#Cc3cccc(F)c3)ccn2c1=O [Example 13.13, 3-(2-ethoxyethyl)-8-((3-fluorophenyl)ethynyl)-4H-pyrido[1,2-a]pyrimidin-4-one]",30 to 100 nM,–
"CC(C)(O)c1cnc2cc(C#Cc3cccc(F)c3)ccn2c1=O [Example 13.18, 8-((3-fluorophenyl)ethynyl)-3-(2-hydroxypropan-2-yl)-4H-pyrido[1,2-a]pyrimidin-4-one]",100 to 300 nM,–
"CC1CCc2c(nc3cc(C#Cc4ccccn4)ccn3c2=O)C1 (stereo not drawn) [Example 15.2, 3-methyl-7-(pyridin-2-ylethynyl)-3,4-dihydro-1H-pyrido[2,1-b]quinazolin-11(2H)-one]",< 10 nM,–
"CC1(C)CCc2c(nc3cc(C#Cc4ccccn4)ccn3c2=O)C1 [Example 15.3, 3,3-dimethyl-7-(pyridin-2-ylethynyl)-3,4-dihydro-1H-pyrido[2,1-b]quinazolin-11(2H)-one]",< 10 nM,–
"CC1(C)CCc2nc3cc(C#Cc4ccccn4)ccn3c(=O)c2C1 [Example 15.4, 2,2-dimethyl-7-(pyridin-2-ylethynyl)-3,4-dihydro-1H-Pyrido[2,1-b]quinazolin-11(2H)-one]",–,< 10 nM
"O=c1c2c(nc3cc(C#Cc4ccc(F)cc4)ccn13)CCCCC2 [Example 16.1, 3-((4-fluorophenyl)ethynyl)-7,8,9,10-tetrahydrocyclohepta[d]pyrido[1,2-a]pyrimidin-11(6H)-one]",< 10 nM,–
"CC1CCc2nc3cc(C#Cc4ccccn4)ccn3c(=O)c2CC1 (stereo not drawn) [Example 16.6, 8-methyl-3-(pyridin-2-ylethynyl)-7,8,9,10-tetrahydrocyclohepta[d]pyrido[1,2-a]pyrimidin-11(6H)-one]",< 10 nM,–
"CN1CCc2nc3cc(C#Cc4ccc(F)cc4)ccn3c(=O)c2CC1 [Example 16.7, 8-((4-fluorophenyl)ethynyl)-3-methyl-2,3,4,5-tetrahydropyrido[1′,2′:1,2]pyrimido[4,5-d]azepin-12(1H)-one]",300 to 1000 nM,–
